Reference: the supplement of paper PMC10307832

Legend:
Assay in all cases: relative viability (nuclei count vs DMSO), 5 days (fraction); higher = more cells survive
[1] = system: SW 900
Summary of the method: (§1)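 Nuclei were stained with Hoechst during a one-step fixation (final 0.05% Triton X-100, 1% formaldehyde, 1 ug/ml Hoechst) carried out 5 days after dosing, then counted on 4× images. The cells, lung cancer lines in 1536-well plates, had been dosed by pin tool the day after seeding with one drug alone or a fixed anchor-drug dose plus five library-drug doses (not always all listed) in √10 steps. Relative viability is the nuclei count in treated wells divided by that in vehicle wells, and each value is the median of duplicate plates.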

[2] = system: NCI-H1563
Summary of the method: as §1

[3] = system: NCI-H2342
Summary of the method: as §1

[4] = system: NCI-H1648
Summary of the method: as §1

[5] = system: NCI-H522
Summary of the method: as §1

[6] = system: NCI-H1623
Summary of the method: as §1

Compound: Cc1cnc(-c2cnc(NCCNc3ccc(C#N)cn3)nc2-c2ccc(Cl)cc2Cl)[nH]1 + COc1cccc2cc(-c3nc([C@H]4CC[C@H](C(=O)O)CC4)n4ncnc(N)c34)[nH]c12 [OSI-027] (partner 0.5 µM)
- relative viability ([1]; first compound 0.08 µM): 0.695
- relative viability ([1]; first compound 0.253 µM): 0.56
- relative viability ([1]; first compound 0.8 µM): 0.502
- relative viability ([1]; first compound 2.53 µM): 0.546
- relative viability ([2]; first compound 0.08 µM): 0.798
- relative viability ([2]; first compound 0.253 µM): 0.733
- relative viability ([2]; first compound 0.8 µM): 0.758
- relative viability ([2]; first compound 2.53 µM): 0.78
- relative viability ([3]; first compound 0.08 µM): 0.653
- relative viability ([3]; first compound 0.253 µM): 0.546
- relative viability ([3]; first compound 0.8 µM): 0.556
- relative viability ([3]; first compound 2.53 µM): 0.53
- relative viability ([4]; first compound 0.08 µM): 0.24
- relative viability ([4]; first compound 0.253 µM): 0.259
- relative viability ([4]; first compound 0.8 µM): 0.242
- relative viability ([4]; first compound 2.53 µM): 0.289
- relative viability ([5]; first compound 0.08 µM): 0.653
- relative viability ([5]; first compound 0.253 µM): 0.705
- relative viability ([5]; first compound 0.8 µM): 0.647
- relative viability ([5]; first compound 2.53 µM): 0.885
- relative viability ([6]; first compound 0.08 µM): 0.478
- relative viability ([6]; first compound 0.253 µM): 0.417
- relative viability ([6]; first compound 0.8 µM): 0.413
- relative viability ([6]; first compound 2.53 µM): 0.48

Compound: O=c1[nH]c2ccccc2n1C1CCN(CCCC(c2ccc(F)cc2)c2ccc(F)cc2)CC1 [Pimozide] + COc1cccc2cc(-c3nc([C@H]4CC[C@H](C(=O)O)CC4)n4ncnc(N)c34)[nH]c12 [OSI-027] (partner 0.5 µM)
- relative viability ([1]; first compound 0.08 µM): 0.879
- relative viability ([1]; first compound 0.253 µM): 0.581
- relative viability ([1]; first compound 0.8 µM): 0.273
- relative viability ([1]; first compound 2.53 µM): 0.475
- relative viability ([1]; first compound 8 µM): 0.384
- relative viability ([2]; first compound 0.08 µM): 0.75
- relative viability ([2]; first compound 0.253 µM): 0.767
- relative viability ([2]; first compound 0.8 µM): 0.817
- relative viability ([2]; first compound 2.53 µM): 0.664
- relative viability ([2]; first compound 8 µM): 0.719
- relative viability ([3]; first compound 0.08 µM): 0.63
- relative viability ([3]; first compound 0.253 µM): 0.623
- relative viability ([3]; first compound 0.8 µM): 0.615
- relative viability ([3]; first compound 2.53 µM): 0.543
- relative viability ([3]; first compound 8 µM): 0.599
- relative viability ([4]; first compound 0.08 µM): 0.275
- relative viability ([4]; first compound 0.253 µM): 0.264
- relative viability ([4]; first compound 0.8 µM): 0.272
- relative viability ([4]; first compound 8 µM): 0.279
- relative viability ([5]; first compound 0.08 µM): 0.682
- relative viability ([5]; first compound 0.253 µM): 0.586
- relative viability ([5]; first compound 0.8 µM): 0.54
- relative viability ([5]; first compound 2.53 µM): 0.829
- relative viability ([5]; first compound 8 µM): 0.682
- relative viability ([6]; first compound 0.08 µM): 0.348
- relative viability ([6]; first compound 0.253 µM): 0.48
- relative viability ([6]; first compound 0.8 µM): 0.374
- relative viability ([6]; first compound 2.53 µM): 0.416
- relative viability ([6]; first compound 8 µM): 0.389

Compound: O=C(O)CCCCC(CCSCc1ccccc1)SCc1ccccc1 (configuration not stated) [CPI-613] + Cc1cc(Nc2cc(N3CCN(C)CC3)nc(Sc3ccc(NC(=O)C4CC4)cc3)n2)n[nH]1 [Tozasertib] (partner 0.1 µM)
- relative viability ([1]; first compound 5 µM): 0.511
- relative viability ([1]; first compound 15.81 µM): 0.557
- relative viability ([1]; first compound 50 µM): 0.473
- relative viability ([1]; first compound 158.11 µM): 0.199
- relative viability ([1]; first compound 500 µM): 0.0732
- relative viability ([3]; first compound 5 µM): 0.523
- relative viability ([3]; first compound 15.81 µM): 0.527
- relative viability ([3]; first compound 50 µM): 0.511
- relative viability ([3]; first compound 158.11 µM): 0.484
- relative viability ([3]; first compound 500 µM): 0.625
- relative viability ([4]; first compound 5 µM): 0.473
- relative viability ([4]; first compound 15.81 µM): 0.312
- relative viability ([4]; first compound 50 µM): 0.589
- relative viability ([4]; first compound 500 µM): 0.391
- relative viability ([5]; first compound 5 µM): 0.512
- relative viability ([5]; first compound 15.81 µM): 0.563
- relative viability ([5]; first compound 50 µM): 0.573
- relative viability ([5]; first compound 158.11 µM): 0.419
- relative viability ([5]; first compound 500 µM): 0.325
- relative viability ([6]; first compound 5 µM): 0.442
- relative viability ([6]; first compound 15.81 µM): 0.387
- relative viability ([6]; first compound 50 µM): 0.421
- relative viability ([6]; first compound 158.11 µM): 0.417
- relative viability ([6]; first compound 500 µM): 0.426
